Data from patent US20250368666A1, “INDAZOLE COMPOUNDS” (TYRA BIOSCIENCES, INC., priority 2022, published 2025).

Assays:
FGFR3 (V555M) = biological target: T1, FGFR3 (V555M) (Homo sapiens, UniProt P22607, V555M); experiment: Kinase binding assay (kinase-tagged T7 phage, affinity beads, qPCR), Kd; conditions: V555M mutant; read-out: FGFR3 (V555M) (Kd nM)
T1 construct: made in house; host or cells: E. coli (BL21-derived), T7 phage
How it was run: (§1)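 Readout was qPCR of kinase eluted from ligand-coated affinity beads after competition with test compound. Kinases were expressed as T7 phage fusions in E. coli. Binding constants were derived by non-linear least-squares Hill fitting, Hill slope −1.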

FGFR4 = biological target: T2, FGFR4 (Homo sapiens, UniProt P22455); experiment: as above; conditions: read-out: FGFR4 (Kd nM)
T2 construct: made in house; host or cells: E. coli (BL21-derived), T7 phage
T2 sequence (P22455 22-802): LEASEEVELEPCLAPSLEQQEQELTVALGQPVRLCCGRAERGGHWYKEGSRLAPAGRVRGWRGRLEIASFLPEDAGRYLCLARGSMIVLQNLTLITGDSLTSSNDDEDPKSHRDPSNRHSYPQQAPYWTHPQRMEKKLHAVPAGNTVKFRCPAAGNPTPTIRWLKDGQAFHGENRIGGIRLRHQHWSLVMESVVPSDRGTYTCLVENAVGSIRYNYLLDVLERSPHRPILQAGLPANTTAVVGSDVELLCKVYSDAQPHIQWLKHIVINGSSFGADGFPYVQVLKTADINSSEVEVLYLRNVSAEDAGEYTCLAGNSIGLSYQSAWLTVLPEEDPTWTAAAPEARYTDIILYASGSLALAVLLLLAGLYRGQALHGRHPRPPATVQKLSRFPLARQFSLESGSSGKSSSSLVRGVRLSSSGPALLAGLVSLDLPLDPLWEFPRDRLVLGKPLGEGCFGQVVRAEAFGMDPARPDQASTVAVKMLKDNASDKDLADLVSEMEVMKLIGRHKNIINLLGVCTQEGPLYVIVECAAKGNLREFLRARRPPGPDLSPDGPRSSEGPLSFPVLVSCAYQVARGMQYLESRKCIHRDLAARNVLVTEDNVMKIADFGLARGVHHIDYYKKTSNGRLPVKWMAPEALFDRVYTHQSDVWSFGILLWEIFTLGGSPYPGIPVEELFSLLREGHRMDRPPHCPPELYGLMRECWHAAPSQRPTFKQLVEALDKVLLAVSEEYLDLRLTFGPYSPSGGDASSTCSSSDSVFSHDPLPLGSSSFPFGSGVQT
How it was run: as §1

FGFR2 = biological target: T3, FGFR2 (Homo sapiens, UniProt P21802); experiment: as above; conditions: read-out: FGFR2 (Kd nM)
T3 construct: made in house; host or cells: E. coli (BL21-derived), T7 phage
T3 sequence (P21802 22-821): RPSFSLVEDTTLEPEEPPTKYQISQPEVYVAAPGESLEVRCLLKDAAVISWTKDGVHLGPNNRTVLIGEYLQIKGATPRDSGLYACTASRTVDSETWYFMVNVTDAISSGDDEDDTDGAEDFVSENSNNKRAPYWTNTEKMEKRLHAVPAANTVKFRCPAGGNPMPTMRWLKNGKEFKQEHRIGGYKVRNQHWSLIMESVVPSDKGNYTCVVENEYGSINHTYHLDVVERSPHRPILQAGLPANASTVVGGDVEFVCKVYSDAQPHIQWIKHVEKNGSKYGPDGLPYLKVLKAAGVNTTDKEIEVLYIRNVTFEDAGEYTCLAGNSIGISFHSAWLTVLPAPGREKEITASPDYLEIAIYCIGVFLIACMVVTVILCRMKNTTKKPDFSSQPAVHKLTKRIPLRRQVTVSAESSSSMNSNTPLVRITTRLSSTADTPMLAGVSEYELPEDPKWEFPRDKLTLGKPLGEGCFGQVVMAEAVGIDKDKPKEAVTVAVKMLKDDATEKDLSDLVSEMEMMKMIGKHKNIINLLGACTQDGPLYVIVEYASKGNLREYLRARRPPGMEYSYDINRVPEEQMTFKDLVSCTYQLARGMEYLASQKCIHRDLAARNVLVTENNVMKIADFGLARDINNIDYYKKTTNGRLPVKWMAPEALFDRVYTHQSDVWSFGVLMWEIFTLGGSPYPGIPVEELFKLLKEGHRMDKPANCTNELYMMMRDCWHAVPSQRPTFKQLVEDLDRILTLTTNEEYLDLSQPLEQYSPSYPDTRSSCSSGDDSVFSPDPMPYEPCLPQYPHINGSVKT
How it was run: as §1

FGFR1 = biological target: T4, FGFR1 (Homo sapiens, UniProt P11362); experiment: as above; conditions: read-out: FGFR1 (Kd nM)
T4 construct: made in house; host or cells: E. coli (BL21-derived), T7 phage
T4 sequence (P11362 22-822): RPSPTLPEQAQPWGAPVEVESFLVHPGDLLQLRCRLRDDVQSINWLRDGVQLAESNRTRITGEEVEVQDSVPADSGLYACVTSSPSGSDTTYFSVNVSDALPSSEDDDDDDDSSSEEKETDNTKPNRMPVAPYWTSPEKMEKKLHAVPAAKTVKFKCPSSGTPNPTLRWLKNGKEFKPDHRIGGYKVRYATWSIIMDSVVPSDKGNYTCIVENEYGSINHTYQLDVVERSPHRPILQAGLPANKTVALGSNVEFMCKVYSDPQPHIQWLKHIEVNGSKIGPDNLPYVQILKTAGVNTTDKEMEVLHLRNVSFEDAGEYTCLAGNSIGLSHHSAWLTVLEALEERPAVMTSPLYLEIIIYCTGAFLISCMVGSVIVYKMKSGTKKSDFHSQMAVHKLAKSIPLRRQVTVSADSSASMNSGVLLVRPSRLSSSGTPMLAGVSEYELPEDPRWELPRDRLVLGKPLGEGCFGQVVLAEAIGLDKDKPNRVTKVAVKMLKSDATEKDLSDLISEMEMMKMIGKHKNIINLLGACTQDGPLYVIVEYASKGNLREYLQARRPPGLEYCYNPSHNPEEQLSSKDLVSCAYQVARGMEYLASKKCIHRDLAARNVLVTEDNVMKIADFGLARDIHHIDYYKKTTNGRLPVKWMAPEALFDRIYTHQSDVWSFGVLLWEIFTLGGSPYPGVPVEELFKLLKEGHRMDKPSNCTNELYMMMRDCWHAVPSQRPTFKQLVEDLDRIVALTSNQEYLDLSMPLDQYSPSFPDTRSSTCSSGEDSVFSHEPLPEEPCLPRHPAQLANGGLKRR
How it was run: as §1

FGFR3 = biological target: T5, FGFR3 (Homo sapiens, UniProt P22607); experiment: as above; conditions: read-out: FGFR3 (Kd nM)
T5 construct: made in house; host or cells: E. coli (BL21-derived), T7 phage
T5 sequence (P22607 23-806): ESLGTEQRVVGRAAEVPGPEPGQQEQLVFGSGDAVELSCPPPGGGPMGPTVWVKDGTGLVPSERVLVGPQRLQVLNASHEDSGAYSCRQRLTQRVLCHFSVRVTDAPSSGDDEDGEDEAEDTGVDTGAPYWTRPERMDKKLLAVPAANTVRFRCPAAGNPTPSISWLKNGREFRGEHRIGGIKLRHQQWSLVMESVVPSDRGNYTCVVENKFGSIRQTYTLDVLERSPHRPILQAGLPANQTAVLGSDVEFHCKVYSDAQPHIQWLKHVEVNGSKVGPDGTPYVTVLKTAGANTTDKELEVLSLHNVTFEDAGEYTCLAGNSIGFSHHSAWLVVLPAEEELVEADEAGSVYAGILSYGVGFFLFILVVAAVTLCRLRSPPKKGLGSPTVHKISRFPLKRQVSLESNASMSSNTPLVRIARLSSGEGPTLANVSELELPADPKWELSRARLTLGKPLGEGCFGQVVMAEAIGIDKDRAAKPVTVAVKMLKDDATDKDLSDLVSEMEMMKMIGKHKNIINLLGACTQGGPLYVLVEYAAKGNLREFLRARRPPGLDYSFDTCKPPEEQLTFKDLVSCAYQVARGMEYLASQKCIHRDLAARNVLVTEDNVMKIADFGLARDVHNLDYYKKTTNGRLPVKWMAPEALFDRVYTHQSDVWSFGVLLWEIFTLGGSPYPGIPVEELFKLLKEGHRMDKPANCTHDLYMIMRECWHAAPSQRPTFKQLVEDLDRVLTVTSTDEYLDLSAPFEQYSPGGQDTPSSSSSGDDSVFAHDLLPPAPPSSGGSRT
How it was run: as §1

[1] = tested on: HuH7 cell line (FGF19 amplification); experiment: Cancer cell line cell viability assay (Cell Titer-Glo), 120 hr; format: cell-based; conditions: Homo sapiens, Huh-7
How it was run: (§2)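 Following overnight attachment, each line receives compound in triplicate across nine 4-fold dilutions starting at 3 μM, with DMSO backfill for equal solvent. Luminescence after Cell Titer-Glo 2.0 addition gives percent viability versus DMSO control, fitted by 4-parameter logistic for IC50.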

[2] = tested on: RT112/84 cell line (FGFR3-fusion); experiment: Cancer cell line cell viability assay (Cell Titer-Glo), 72 hr; format: cell-based; conditions: Homo sapiens, RT112/84, RT112/84 cell line (FGFR3-fusion)
How it was run: as §2

[3] = tested on: KATO-III cell line (FGFR2 amplification); experiment: as above; format: cell-based; conditions: Homo sapiens, KATO III
How it was run: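 5,000-20,000 cells/well o/n; cpd 9-pt 4x dil from 3 μM, n=3; 37° C/5% CO2; CTG 2.0 lumi; % DMSO ctrl; 4PL IC50.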

[4] = tested on: KG-1 cell line (FGFR 1-fusion); experiment: as above; format: cell-based; conditions: Homo sapiens, KG-1, KG-1 cell line (FGFR1-fusion)
How it was run: as §2

T1 sequence (P22607 23-806 V555M): as the sequence (P22607 23-806) above, with V533M counted along it

| Kd (FGFR3 (V555M)) | Kd (FGFR4) | Kd (FGFR2) | Kd (FGFR1) | Kd (FGFR3) | IC50 [1] | IC50 [2] | IC50 [3] | IC50 [4] | SMILES |
| --- | --- | --- | --- | --- | --- | --- | --- | --- | --- |
| 1 to 50 nM | 1 to 50 nM | 1 to 50 nM | 1 to 50 nM | 1 to 50 nM | 0.1 to 50 nM | 0.1 to 50 nM | 50 to 200 nM | 50 to 200 nM | COCCNC1(C)CN(c2ncc(-c3n[nH]c4cc(OC)c(O[C@H](C)c5c(Cl)cncc5Cl)cc34)cc2C#N)C1 [Example 37, 5-[5-[(1R)-1-(3,5-dichloro-4-pyridyl)ethoxy]-6-methoxy-1H-indazol-3-yl]-2-[3-(2-methoxyethylamino)-3-methyl-azetidin-1-yl]pyridine-3-carbonitrile] |
| 1 to 50 nM | 1 to 50 nM | 1 to 50 nM | 1 to 50 nM | 1 to 50 nM | 0.1 to 50 nM | 0.1 to 50 nM | 50 to 200 nM | 50 to 200 nM | COc1cc2[nH]nc(-c3cnc(N4CC(C)(NCCC(F)F)C4)c(C#N)c3)c2cc1O[C@H](C)c1c(Cl)cncc1Cl [Example 41, 5-[5-[(1R)-1-(3,5-dichloro-4-pyridyl)ethoxy]-6-methoxy-1H-indazol-3-yl]-2-[3-(3,3-difluoropropylamino)-3-methyl-azetidin-1-yl]pyridine-3-carbonitrile] |
| 1 to 50 nM | 1 to 50 nM | 1 to 50 nM | 1 to 50 nM | 1 to 50 nM | 0.1 to 50 nM | 0.1 to 50 nM | 50 to 200 nM | 50 to 200 nM | COc1cc2[nH]nc(-c3cnc(N4CC(C)(NCC(F)F)C4)c(C#N)c3)c2cc1O[C@H](C)c1c(Cl)cncc1Cl [Example 42, 5-[5-[(1R)-1-(3,5-dichloro-4-pyridyl)ethoxy]-6-methoxy-1H-indazol-3-yl]-2-[3-(2,2-difluoroethylamino)-3-methyl-azetidin-1-yl]pyridine-3-carbonitrile] |
| 1 to 50 nM | 1 to 50 nM | 1 to 50 nM | 1 to 50 nM | 1 to 50 nM | 0.1 to 50 nM | 0.1 to 50 nM | 50 to 200 nM | 50 to 200 nM | C[C@@H](Oc1ccc2[nH]nc(-c3cnc(N4CC(C)(N5CCOCC5)C4)nc3)c2c1)c1c(Cl)cncc1Cl [Example 43, (R)-4-(1-(5-(5-(1-(3,5-dichloropyridin-4-yl)ethoxy)-1H-indazol-3-yl)pyrimidin-2-yl)-3-methylazetidin-3-yl)morpholine] |
| 1 to 50 nM | 1 to 50 nM | 1 to 50 nM | 1 to 50 nM | 1 to 50 nM | 0.1 to 50 nM | 0.1 to 50 nM | 50 to 200 nM | 50 to 200 nM | C[C@@H](Oc1ccc2[nH]nc(-c3cnc(N4CC(C)(N(C)C)C4)nc3)c2c1)c1c(Cl)cncc1Cl [Example 44, (R)-1-(5-(5-(1-(3,5-dichloropyridin-4-yl)ethoxy)-1H-indazol-3-yl)pyrimidin-2-yl)-N,N,3-trimethylazetidin-3-amine] |
| 1 to 50 nM | 1 to 50 nM | 1 to 50 nM | 1 to 50 nM | 1 to 50 nM | 0.1 to 50 nM | 50 to 200 nM | 50 to 200 nM | 200 to 1000 nM | COc1cc2[nH]nc(-c3cnc(N4CC(C)(NCCO)C4)c(C#N)c3)c2cc1O[C@H](C)c1c(Cl)cncc1Cl [Example 47, 5-[5-[(1R)-1-(3,5-dichloro-4-pyridyl)ethoxy]-6-methoxy-1H-indazol-3-yl]-2-[3-(2-hydroxyethylamino)-3-methyl-azetidin-1-yl]pyridine-3-carbonitrile] |
| 1 to 50 nM | 1 to 50 nM | 1 to 50 nM | 1 to 50 nM | 1 to 50 nM | 0.1 to 50 nM | 50 to 200 nM | 200 to 1000 nM | 200 to 1000 nM | CC(C)NC1(C)CN(c2ncc(-c3n[nH]c4ccc(O[C@H](C)c5c(Cl)cncc5Cl)cc34)cc2C#N)C1 [Example 48, (R)-5-(5-(1-(3,5-dichloropyridin-4-yl)ethoxy)-1H-indazol-3-yl)-2-(3-(isopropylamino)-3-methylazetidin-1-yl)nicotinonitrile] |
| 1 to 50 nM | 1 to 50 nM | 1 to 50 nM | 1 to 50 nM | 1 to 50 nM | 0.1 to 50 nM | 0.1 to 50 nM | 0.1 to 50 nM | 0.1 to 50 nM | COc1cc2[nH]nc(-c3cnc(N4CC(C)(CN(C)C)C4)c(C#N)c3)c2cc1O[C@H](C)c1c(Cl)cncc1Cl [Example 49, (R)-5-(5-(1-(3,5-dichloropyridin-4-yl)ethoxy)-6-methoxy-1H-indazol-3-yl)-2-(3-((dimethylamino)methyl)-3-methylazetidin-1-yl)nicotinonitrile] |
| 1 to 50 nM | 1 to 50 nM | 1 to 50 nM | 1 to 50 nM | 1 to 50 nM | 0.1 to 50 nM | 0.1 to 50 nM | 0.1 to 50 nM | 0.1 to 50 nM | COc1cc2[nH]nc(-c3cnc(N4CC(C)(CNC(C)C)C4)c(C#N)c3)c2cc1O[C@H](C)c1c(Cl)cncc1Cl [Example 50, (R)-5-(5-(1-(3,5-dichloropyridin-4-yl)ethoxy)-6-methoxy-1H-indazol-3-yl)-2-(3-((isopropylamino)methyl)-3-methylazetidin-1-yl)nicotinonitrile] |
| 1 to 50 nM | 1 to 50 nM | 1 to 50 nM | 1 to 50 nM | 1 to 50 nM | 0.1 to 50 nM | 0.1 to 50 nM | 0.1 to 50 nM | 0.1 to 50 nM | COc1cc2[nH]nc(-c3cnc(N4CC(C)(N(C)C)C4)nc3)c2cc1O[C@H](C)c1c(Cl)cncc1Cl [Example 51, (R)-1-(5-(5-(1-(3,5-dichloropyridin-4-yl)ethoxy)-6-methoxy-1H-indazol-3-yl)pyrimidin-2-yl)-N,N,3-trimethylazetidin-3-amine] |
| 1 to 50 nM | 1 to 50 nM | 1 to 50 nM | 1 to 50 nM | 1 to 50 nM | 0.1 to 50 nM | 50 to 200 nM | 50 to 200 nM | 200 to 1000 nM | C[C@@H](Oc1ccc2[nH]nc(-c3cnc(N4CC(C)(NCCO)C4)c(C#N)c3)c2c1)c1c(Cl)cncc1Cl [Example 52, 5-[5-[(1R)-1-(3,5-dichloro-4-pyridyl)ethoxy]-1H-indazol-3-yl]-2-[3-(2-hydroxyethylamino)-3-methyl-azetidin-1-yl]pyridine-3-carbonitrile] |
| 1 to 50 nM | 1 to 50 nM | 1 to 50 nM | 1 to 50 nM | 1 to 50 nM | 0.1 to 50 nM | 50 to 200 nM | 200 to 1000 nM | 200 to 1000 nM | C[C@@H](Oc1ccc2[nH]nc(-c3cnc(N4CC(C)(NCC(C)(C)O)C4)c(C#N)c3)c2c1)c1c(Cl)cncc1Cl [Example 54, (R)-5-(5-(1-(3,5-dichloropyridin-4-yl)ethoxy)-1H-indazol-3-yl)-2-(3-((2-hydroxy-2-methylpropyl)amino)-3-methylazetidin-1-yl)nicotinonitrile] |
| 1 to 50 nM | 1 to 50 nM | 1 to 50 nM | 1 to 50 nM | 1 to 50 nM | 0.1 to 50 nM | 0.1 to 50 nM | 50 to 200 nM | 200 to 1000 nM | C[C@@H](O)CNC1(C)CN(c2ncc(-c3n[nH]c4ccc(O[C@H](C)c5c(Cl)cncc5Cl)cc34)cc2C#N)C1 [Example 56, 5-(5-((R)-1-(3,5-dichloropyridin-4-yl)ethoxy)-1H-indazol-3-yl)-2-(3-(((R)-2-hydroxypropyl)amino)-3-methylazetidin-1-yl)nicotinonitrile] |
| 1 to 50 nM | 1 to 50 nM | 1 to 50 nM | 1 to 50 nM | 1 to 50 nM | 0.1 to 50 nM | 0.1 to 50 nM | 50 to 200 nM | 200 to 1000 nM | C[C@H](O)CNC1(C)CN(c2ncc(-c3n[nH]c4ccc(O[C@H](C)c5c(Cl)cncc5Cl)cc34)cc2C#N)C1 [Example 57, 5-(5-((R)-1-(3,5-dichloropyridin-4-yl)ethoxy)-1H-indazol-3-yl)-2-(3-(((S)-2-hydroxypropyl)amino)-3-methylazetidin-1-yl)nicotinonitrile] |
| 1 to 50 nM | 1 to 50 nM | 1 to 50 nM | 1 to 50 nM | 1 to 50 nM | 0.1 to 50 nM | 0.1 to 50 nM | 50 to 200 nM | 50 to 200 nM | COc1cc2[nH]nc(-c3cnc(N4CC(C)(C)C4)nc3)c2cc1O[C@H](C)c1c(Cl)cncc1Cl [Example 61, 5-[(1R)-1-(3,5-dichloro-4-pyridyl)ethoxy]-3-[2-(3,3-dimethylazetidin-1-yl)pyrimidin-5-yl]-6-methoxy-1H-indazole] |
